Consider 34 sequences from the supplement of paper PMC11208160.
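Further: IS621 bridge recombinase in Escherichia coli cells against a fixed T5 target plasmid.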

The data set is described as follows: recombinant UMI read abundance after kanamycin selection (control-corrected) (log10(CPM+1)); higher = more efficient recombination; extreme values may be limits of the assay; sequences stand for … in AGTGCAGAGAAAATCGGCCAGTTTTCTCTGCCTGCAGTCCGCATGCCGTGGGACCCCTTGGGTTCTAACCTGTTGCCTAGATTTATGCAGCGGACTGCCTTTCTCCCAAAGTGATAAACCGG…AGGTTGGTTTCACT; site = the 11-nt donor. The method in brief:
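Pooled Escherichia coli screen of donor and donor-binding-loop pairs for the IS621 bridge recombinase. Each pair sits with a 12-nt UMI on a plasmid carrying a promoterless kanamycin gene. The library was co-electroporated with a target plasmid encoding a fixed target and T7-inducible recombinase, then plated with IPTG (0.07 mM) plus kanamycin, or unselected, each in two replicates. Recombinant UMIs were PCR-amplified across the donor–target junction and sequenced. Counts became CPM, averaged over replicates, scaled by control-derived factors and reported as log10(CPM+1).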
Take “AGTGGCGCATGGACCGGTTTTCCCGGTAATCCGTATTTGTC (site AGTGGCGCTGA)”: the “recombinant UMI read abundance (log10)” value was 2.86.
With “AGTTACGCATGGACCGGTTTTCCCGGTAATCCGTATTTGAT (site AGTTACGCTAT)”, the “recombinant UMI read abundance (log10)” value stood at 1.72.
In the case of “AGTTCCCCATGGACCGGTTTTCCCGGTAATCCGTATTTGTA (site AGTTCCCCTTA)”, the “recombinant UMI read abundance (log10)” value is 0.124.
With “AGTTCCCCATGGACCGGTTTTCCCGGTAATCCGTATTTGTA (site CGTTCCCCTTA)”, the “recombinant UMI read abundance (log10)” value turned out to be 0.025.
In the case of “AGTTCCCCATGGACCGGTTTTCCCGGTAATCCGTATTTGTA (site GGTTCCCCTTA)”, the “recombinant UMI read abundance (log10)” value stood at 0.013.
As to “AGTTCCCCATGGACCGGTTTTCCCGGTAATCCGTATTTGTA (site TGTTCCCCTTA)”, the “recombinant UMI read abundance (log10)” value came to 0.0167.
With “ATAAGAACATGGACCGGTTTTCCCGGTAATCCGTATTTGGG (site ATAAGAACTCC)” the figure was 0.884.
“ATAAGATCATGGACCGGTTTTCCCGGTAATCCGTATTTGAA (site ATAAGATCTTT)”: the “recombinant UMI read abundance (log10)” value came to 2.8.
On to “ATAAGGACATGGACCGGTTTTCCCGGTAATCCGTATTTGAC (site ATAAGGACTGT)”, for which the “recombinant UMI read abundance (log10)” value amounted to 2.34.
For the sequence “ATAAGGACATGGACCGGTTTTCCCGGTAATCCGTATTTGAC (site ATAAGGCCTGT)”, the “recombinant UMI read abundance (log10)” value stood at 0.
For “ATAAGGACATGGACCGGTTTTCCCGGTAATCCGTATTTGAC (site ATAAGGGCTGT)” the value was 2.31; for “ATAAGGACATGGACCGGTTTTCCCGGTAATCCGTATTTGAC (site ATAAGGTCTGT)”, 1.93.
As to “ATAAGGCCATGGACCGGTTTTCCCGGTAATCCGTATTTGGC (site ATAAGGCCTGA)”, the “recombinant UMI read abundance (log10)” value was 0.
For “ATAAGGCCATGGACCGGTTTTCCCGGTAATCCGTATTTGGC (site ATAAGGCCTGC)” the value was 2.31; for “ATAAGGCCATGGACCGGTTTTCCCGGTAATCCGTATTTGGC (site ATAAGGCCTGG)”, 0; for “ATAAGGCCATGGACCGGTTTTCCCGGTAATCCGTATTTGGC (site ATAAGGCCTGT)”, 0.68.
Consider “ATACAAGCATGGACCGGTTTTCCCGGTAATCCGTATTTGAC (site ATACAAGCTGT)”, for which the “recombinant UMI read abundance (log10)” value amounted to 2.38.
On to “ATACCACCATGGACCGGTTTTCCCGGTAATCCGTATTTGGT (site ATACCACCTAC)”, for which the “recombinant UMI read abundance (log10)” value is 0.0125.
With “ATACCGTCATGGACCGGTTTTCCCGGTAATCCGTATTTGGG (site ATACCGTCTCC)”, the “recombinant UMI read abundance (log10)” value turned out to be 0.0133.
Take “ATACTATCATGGACCGGTTTTCCCGGTAATCCGTATTTGTT (site ATACTATCTAA)”: the “recombinant UMI read abundance (log10)” value was found to be 2.54.
Regarding “ATAGCATCATGGACCGGTTTTCCCGGTAATCCGTATTTGCA (site ACAGTATCTTG)”, the “recombinant UMI read abundance (log10)” value was 1.65.
With “ATAGCATCATGGACCGGTTTTCCCGGTAATCCGTATTTGCA (site ATAGCATCTTG)” the figure was 2.9; with “ATAGGTGCATGGACCGGTTTTCCCGGTAATCCGTATTTGGC (site ATAGGTGCTGC)”, 3.17.
“ATAGTATCATGGACCGGTTTTCCCGGTAATCCGTATTTGTA (site ACAGTATCTTG)”: the “recombinant UMI read abundance (log10)” value is 0.029.
For “ATAGTATCATGGACCGGTTTTCCCGGTAATCCGTATTTGTA (site ATAGTATCTTA)”, the “recombinant UMI read abundance (log10)” value is 3.14.
As to “ATAGTCGCATGGACCGGTTTTCCCGGTAATCCGTATTTGCG (site ATAGTCGCTCG)”, the “recombinant UMI read abundance (log10)” value was 1.37.
As to “ATAGTCGCATGGACCGGTTTTCCCGGTAATCCGTATTTGCG (site CTAGTCGCTCG)”, the “recombinant UMI read abundance (log10)” value came out at 0.303.
As for “ATAGTCGCATGGACCGGTTTTCCCGGTAATCCGTATTTGCG (site GTAGTCGCTCG)”, the “recombinant UMI read abundance (log10)” value was determined as 0.0129.
For “ATAGTCGCATGGACCGGTTTTCCCGGTAATCCGTATTTGCG (site TTAGTCGCTCG)” the value was 0.00819; for “ATAGTCTCATGGACCGGTTTTCCCGGTAATCCGTATTTGAG (site ATAGTCTCTCT)”, 2.
For “ATAGTGGCATGGACCGGTTTTCCCGGTAATCCGTATTTGGC (site ATAGTGGCTGC)” the value was 2.85.
With “ATAGTTTCATGGACCGGTTTTCCCGGTAATCCGTATTTGCA (site ACAGTATCTTG)” the figure was 1.49; with “ATAGTTTCATGGACCGGTTTTCCCGGTAATCCGTATTTGCA (site ATAGTTTCTTG)”, 2.47.
“ATATAGACATGGACCGGTTTTCCCGGTAATCCGTATTTGCT (site ATATAGACTAG)”: the “recombinant UMI read abundance (log10)” value is 2.72.
